Measurements published in patent publication US11685746B2, “Heteroaryl compounds for treating Huntington's disease” (PTC THERAPEUTICS, INC., priority 2018, dated 2023).

Test system: Endogenous Huntingtin Protein
Experiment: Endogenous Huntingtin Protein Assay (MSD plates, MW1 or MAB2166 capture antibody)
Assay type: cell-based
Conditions: Table 1
Experimental: Endogenous Huntingtin Protein Assay
Meso Scale Discovery (MSD) 96-well or 384-well plates were coated overnight at 4° C. with MW1 (expanded polyglutamine) or MAB2166 monoclonal antibody (for capture) at a concentration of 1 μg/mL in PBS (30 μL per well). Plates were then washed three times with 300 μL wash buffer (0.05% Tween-20 in PBS) and blocked (100 μL blocking buffer; 5% BSA in PBS) for 4-5 hours at room temperature with rotational shaking and then washed three times with wash buffer.
Samples (25 μL) were transferred to the antibody-coated MSD plate and incubated overnight at 4° C. After removal of the lysates, the plate was washed three times with wash buffer, and 25 μL of #5656S (Cell signaling; rabbit monoclonal) secondary antibody (diluted to 0.25 μg/mL in 0.05% Tween-20 in blocking buffer) was added to each well and incubated with shaking for 1 Hour at room temperature. Following incubation with the secondary antibody, the wells were rinsed with wash buffer after which 25 μL of goat anti-rabbit SULFO TAG secondary detection antibody (required aspect of the MSD system) (diluted to 0.25 μg/mL in 0.05% Tween-20 in blocking buffer) was added to each well and incubated with shaking for 1 hour at room temperature. After rinsing three times with wash buffer, 150 μL of read buffer T with surfactant (MSD) were added to each empty well, and the plate was imaged on a SI 6000 imager (MSD) according to manufacturers' instructions provided for 96- or 384-well plates.

Row | SMILES | IC50
1 | CCn1cc(-c2cnc(-c3nc4sc(N(C)[C@H]5CCN[C@H](C)C5)nc4s3)c3[nH]ccc23)cn1 [Compound 90, 5-[4-(1-ethyl-1H-pyrazol-4-yl)-1H-pyrrolo[2,3-c]pyridin-7-yl]-N-methyl-N-[(2R,4S)-2-methylpiperidin-4-yl][1,3]thiazolo[5,4-d][1,3]thiazol-2-amine] | ≤ 100 nM
2 | CN(c1nc2sc(-c3ccc(Br)c4cn[nH]c34)nc2s1)[C@H]1C[C@]2(C)CC[C@](C)(C1)N2 [Compound 111, 5-(4-bromo-1H-indazol-7-yl)-N-[(1R,3s,5S)-1,5-dimethyl-8-azabicyclo[3.2.1]octan-3-yl]-N-methyl[1,3]thiazolo[5,4-d][1,3]thiazol-2-amine] | ≤ 100 nM
3 | CN(c1nc2sc(-c3cc(F)c(-c4cn[nH]c4)c(F)c3)nc2s1)C1CC(C)(C)NC(C)(C)C1 [Compound 5, 5-[3,5-difluoro-4-(1H-pyrazol-4-yl)phenyl]-N-methyl-N-(2,2,6,6-tetramethylpiperidin-4-yl)[1,3]thiazolo[5,4-d][1,3]thiazol-2-amine] | ≤ 100 nM
4 | Cc1cn2cc(-c3nc4sc(C5CCNCC5)nc4s3)cc(C#N)c2n1 [Compound 10, 2-methyl-6-[5-(piperidin-4-yl)[1,3]thiazolo[5,4-d][1,3]thiazol-2-yl]imidazo[1,2-a]pyridine-8-carbonitrile] | 100 to 500 nM
5 | C[C@H]1C[C@H](N(C)c2nc3sc(-c4cnc(-n5ccnc5)cn4)nc3s2)CCN1 [Compound 66, 5-[5-(1H-imidazol-1-yl)pyrazin-2-yl]-N-methyl-N-[(2S,4R)-2-methylpiperidin-4-yl][1,3]thiazolo[5,4-d][1,3]thiazol-2-amine] | ≤ 100 nM
6 | COc1cc(-c2cn[nH]c2)ccc1-c1nc2sc(N(C)C3CCNCC3)nc2s1 [Compound 200, 5-[2-methoxy-4-(1H-pyrazol-4-yl)phenyl]-N-methyl-N-(piperidin-4-yl)[1,3]thiazolo[5,4-d][1,3]thiazol-2-amine] | 1000 to 3000 nM
7 | C[C@H]1C[C@@H](N(C)c2nc3sc(-c4ncc(-c5cn[nH]c5)c5cc[nH]c45)nc3s2)CCN1 [Compound 98, N-methyl-N-[(2S,4S)-2-methylpiperidin-4-yl]-5-[4-(1H-pyrazol-4-yl)-1H-pyrrolo[2,3-c]pyridin-7-yl][1,3]thiazolo[5,4-d][1,3]thiazol-2-amine] | ≤ 100 nM
8 | Cc1cc(-c2cn3cc(C4CCNCC4)nc3s2)cc2cn(C)nc12 [Compound 2, 2,7-dimethyl-5-[6-(piperidin-4-yl)imidazo[2,1-b][1,3]thiazol-2-yl]-2H-indazole] | ≤ 100 nM
9 | CN(c1nc2sc(-c3ncc(-c4cn[nH]c4)cn3)nc2s1)C1CC(C)(C)NC(C)(C)C1 [Compound 162, N-methyl-5-[5-(1H-pyrazol-4-yl)pyrimidin-2-yl]-N-(2,2,6,6-tetramethylpiperidin-4-yl)[1,3]thiazolo[5,4-d][1,3]thiazol-2-amine] | ≤ 100 nM
10 | Oc1cc(-c2cn[nH]c2)cnc1-c1nc2sc(N3CC4(CCCNC4)C3)nc2s1 [Compound 192, 2-[5-(2,6-diazaspiro[3.5]nonan-2-yl)[1,3]thiazolo[5,4-d][1,3]thiazol-2-yl]-5-(1H-pyrazol-4-yl)pyridin-3-ol] | ≤ 100 nM
11 | CC1(C)CC(Oc2nc3sc(-c4ncc(-c5cn[nH]c5)c5cc[nH]c45)nc3s2)CCN1 (stereo not drawn) [Compound 77, 7-{5-[(2,2-dimethylpiperidin-4-yl)oxy][1,3]thiazolo[5,4-d][1,3]thiazol-2-yl}-4-(1H-pyrazol-4-yl)-1H-pyrrolo[2,3-c]pyridine] | ≤ 100 nM
12 | C[C@H]1C[C@H](Oc2nc3sc(-c4ncc(-c5cn[nH]c5)c5cc[nH]c45)nc3s2)CCN1C [Compound 84, 7-(5-{[(2S,4R)-1,2-dimethylpiperidin-4-yl]oxy}[1,3]thiazolo[5,4-d][1,3]thiazol-2-yl)-4-(1H-pyrazol-4-yl)-1H-pyrrolo[2,3-c]pyridine] | ≤ 100 nM
13 | CN(c1nc2sc(-c3ncc(-c4cn[nH]c4Cl)cc3O)nc2s1)C1CCNCC1 [Compound 220, 5-(5-chloro-1H-pyrazol-4-yl)-2-{5-[methyl(piperidin-4-yl)amino][1,3]thiazolo[5,4-d][1,3]thiazol-2-yl}pyridin-3-ol] | ≤ 100 nM
14 | Cc1n[nH]c(C)c1-c1cnc(-c2nc3sc(N(C)[C@H]4C[C@]5(C)CC[C@](C)(C4)N5)nc3s2)cn1 [Compound 73, N-[(1R,3s,5S)-1,5-dimethyl-8-azabicyclo[3.2.1]octan-3-yl]-5-[5-(3,5-dimethyl-1H-pyrazol-4-yl)pyrazin-2-yl]-N-methyl[1,3]thiazolo[5,4-d][1,3]thiazol-2-amine] | 1000 to 3000 nM
15 | CN(c1nc2sc(-c3ncc(-n4nccn4)cc3O)nc2s1)C1CCNCC1 [Compound 214, 2-{5-[methyl(piperidin-4-yl)amino][1,3]thiazolo[5,4-d][1,3]thiazol-2-yl}-5-(2H-1,2,3-triazol-2-yl)pyridin-3-ol] | 500 to 1000 nM
16 | CN(c1nc2sc(-c3cnc(Br)n4ccnc34)nc2s1)C1CCNCC1 [Compound 116, 5-(5-bromoimidazo[1,2-c]pyrimidin-8-yl)-N-methyl-N-(piperidin-4-yl)[1,3]thiazolo[5,4-d][1,3]thiazol-2-amine] | 500 to 1000 nM
17 | CN(c1nc2sc(-c3cnc(-n4cccn4)cn3)nc2s1)[C@H]1C[C@]2(C)CC[C@](C)(C1)N2 [Compound 104, N-[(1R,3s,5S)-1,5-dimethyl-8-azabicyclo[3.2.1]octan-3-yl]-N-methyl-5-[5-(1H-pyrazol-1-yl)pyrazin-2-yl][1,3]thiazolo[5,4-d][1,3]thiazol-2-amine] | 500 to 1000 nM
18 | Oc1cc(-c2cn[nH]c2)ccc1-c1nc2sc(NC3CC4CCC(C3)N4)nc2s1 (stereo not drawn) [Compound 13, 2-{5-[(3-exo)-8-azabicyclo[3.2.1]oct-3-ylamino][1,3]thiazolo[5,4-d][1,3]thiazol-2-yl}-5-(1H-pyrazol-4-yl)phenol] | ≤ 100 nM
19 | CN(c1nc2sc(-c3ccc(-c4cn[nH]c4)c4cn[nH]c34)nc2s1)C1CC(C)(C)NC(C)(C)C1 [Compound 107, N-methyl-5-[4-(1H-pyrazol-4-yl)-1H-indazol-7-yl]-N-(2,2,6,6-tetramethylpiperidin-4-yl)[1,3]thiazolo[5,4-d][1,3]thiazol-2-amine] | ≤ 100 nM
20 | CN1CCC(Nc2nc3sc(-c4ccc(-c5cn[nH]c5)cc4O)nc3s2)CC1 [Compound 23, 2-{5-[(1-methylpiperidin-4-yl)amino][1,3]thiazolo[5,4-d][1,3]thiazol-2-yl}-5-(1H-pyrazol-4-yl)phenol] | ≤ 100 nM
21 | CN(c1nc2sc(-c3ncc(-n4cc(F)cn4)cc3O)nc2s1)C1CCNCC1 [Compound 62, 5-(4-fluoropyrazol-1-yl)-2-[5-[methyl(4-piperidyl)amino]thiazolo[5,4-d]thiazol-2-yl]pyridin-3-ol] | 1000 to 3000 nM
22 | Cc1cn(-c2cnc(-c3nc4sc(N(C)C5CCNCC5)nc4s3)c(O)c2)cn1 [Compound 221, 5-(4-methyl-1H-imidazol-1-yl)-2-{5-[methyl(piperidin-4-yl)amino][1,3]thiazolo[5,4-d][1,3]thiazol-2-yl}pyridin-3-ol] | ≤ 100 nM
23 | CN(c1nc2sc(-n3cnc(-c4cn[nH]c4)cc3=O)nc2s1)[C@@H]1C[C@H]2CC[C@@H](C1)N2C [Compound 153, 3-(5-{methyl[(1R,3s,5S)-8-methyl-8-azabicyclo[3.2.1]octan-3-yl]amino}[1,3]thiazolo[5,4-d][1,3]thiazol-2-yl)-6-(1H-pyrazol-4-yl)pyrimidin-4(3H)-one] | ≤ 100 nM
24 | CN1CCC2(CC1)CN(c1nc3sc(-c4ncc(-c5cn[nH]c5)c5cc[nH]c45)nc3s1)C2 [Compound 138, 7-[5-(7-methyl-2,7-diazaspiro[3.5]nonan-2-yl)[1,3]thiazolo[5,4-d][1,3]thiazol-2-yl]-4-(1H-pyrazol-4-yl)-1H-pyrrolo[2,3-c]pyridine] | ≤ 100 nM
25 | CN(c1nn2cc(-c3ccc(-c4cn[nH]c4)cc3O)nc2s1)C1CC(C)(C)NC(C)(C)C1 [Compound 17, 2-{2-[methyl(2,2,6,6-tetramethylpiperidin-4-yl)amino]imidazo[2,1-b][1,3,4]thiadiazol-6-yl}-5-(1H-pyrazol-4-yl)phenol] | 500 to 1000 nM
26 | Cn1cc2cc(-c3nn4cc(C5CCNCC5)nc4s3)cc(C#N)c2n1 [Compound 27, 2-methyl-5-[6-(piperidin-4-yl)imidazo[2,1-b][1,3,4]thiadiazol-2-yl]-2H-indazole-7-carbonitrile] | ≤ 100 nM
27 | Fc1cc(-c2nc3sc(N4CC5(CCNCC5)C4)nc3s2)c(F)cc1-c1cn[nH]c1 [Compound 177, 2-{5-[2,5-difluoro-4-(1H-pyrazol-4-yl)phenyl][1,3]thiazolo[5,4-d][1,3]thiazol-2-yl}-2,7-diazaspiro[3.5]nonane] | 1000 to 3000 nM
28 | CN(c1nc2sc(-c3ncc(-n4cncn4)cc3O)nc2s1)C1CCNCC1 [Compound 212, 2-{5-[methyl(piperidin-4-yl)amino][1,3]thiazolo[5,4-d][1,3]thiazol-2-yl}-5-(1H-1,2,4-triazol-1-yl)pyridin-3-ol] | 100 to 500 nM
29 | Cc1cn2cc(-c3nn4cc(C5CCNCC5)nc4s3)cc(F)c2n1 [Compound 30, 8-fluoro-2-methyl-6-[6-(piperidin-4-yl)imidazo[2,1-b][1,3,4]thiadiazol-2-yl]imidazo[1,2-a]pyridine] | 100 to 500 nM
30 | CN1C2CCC1CC(Nc1nn3cc(-c4ccc(-c5cn[nH]c5)cc4O)nc3s1)C2 (stereo not drawn) [Compound 19, 2-(2-{[(3-exo)-8-methyl-8-azabicyclo[3.2.1]oct-3-yl]amino]imidazo[2,1-b][1,3,4]thiadiazol-6-yl)-5-(1H-pyrazol-4-yl)phenol] | 100 to 500 nM
